Patent US10351536B2, “Crystalline forms of lesinurad and its sodium salt” (CRYSTAL PHARMATECH CO., LTD., priority 2013, dated 2019)
Structures can show the parent of a compound that is named as a salt.

Columns and labels:
[1] = Stability assessment of Form III under stress conditions (XRPD); assay type: physicochemical; conditions: 14 days; for Final form: dish open, XRPD
Method: (§1) Analytical Instrument: Panalytical Empyrean. The X-ray powder diffractogram was determined by mounting a sample of the crystalline material on a Si single crystal low-background holder and spreading out the sample into a thin layer with the aid of a microscope slide. The 2θ position was calibrated against Panalytical 640 Si powder standard. The sample irradiated with X-rays generated by a copper long-fine focus tube operated at 45 kV and 40 mA with a wavelength of Kα1=1.540589 angstroms and Kα2=1.544426 angstroms (Kα1/Kα2 intensity ratio is 0.50). The collimated X-ray source was passed through a programmed divergence slit set at 10 mm and the reflected radiation directed through a 5.5 mm anti-scattering slit. The sample was exposed for 16.3 seconds per 0.013° 2-theta increment (continuous scan mode) over the range 3 degrees to 40 degrees 2-theta in theta-theta mode. The running time was 3 minutes and 57 seconds. The instrument was equipped with an RTMS detector (X'Celerator). Control and data capture was accomplished by means of a Dell Optiplex 780 XP operating with data collector software.
Two samples of lesinurad Form III were stored under 25° C./60% RH and 40° C./75% RH, respectively, with dish open for 14 days. The solid samples were analyzed by XRPD.

[2] = Hygroscopicity assessment by dynamic vapor sorption (DVS); assay type: physicochemical; conditions: 25° C.
Method: Dynamic Vapor Sorption (DVS) was measured via a SMS (Surface Measurement Systems) DVS Intrinsic. The relative humidity at 25° C. were calibrated against deliquescence point of LiCl, Mg(NO3)2 and KCl. Typical Parameters for DVS test are listed below.
Hygroscopicity of lesinurad Form III was investigated using dynamic vapor sorption (DVS).
Hygroscopicity criteria applied in this example refer to the standard in European pharmacopoeia: • deliquescent: sufficient water is absorbed to form a liquid, • very hygroscopic: increase in mass is equal to or greater than 15 percent, • hygroscopic: increase in mass is less than 15 percent and equal to or greater than 2 percent, • slightly hygroscopic: increase in mass is less than 2 percent and equal to or greater than 0.2 percent.

[3] = Inter-conversion of Form A and Form α of lesinurad sodium salt by stirring in water (XRPD); assay type: physicochemical
[4] = tested on: gout patients; conditions: Phase III, gout patients without benefit from allopurinol and febuxostat, lesinurad alone; cited from earlier work
[5] = Stability assessment of lesinurad sodium salt Form β on storage (XRPD); assay type: physicochemical; conditions: room temperature, 12 months
Method: as §1
A sample of the lesinurad sodium salt Form β was stored under room temperature for 12 months. The solid sample was analyzed by XRPD.

Compound: O=C(O)CSc1nnc(Br)n1-c1ccc(C2CC2)c2ccccc12 [Form III, 2-((5-bromo-4-(4-cyclopropylnaphthalen-1-yl)-4H-1,2,4-triazol-3-yl)thio)acetic acid]
- Stability under the stress conditions ([1]; 25° C./60% RH and 40° C./75% RH): stable under the stress conditions
- Final form ([1]; 25° C./60% RH): Form III
- Final form ([1]; 40° C./75% RH): Form III
- Water uptake under 80% RH ([2]; 80% RH): 0.8%
- Water uptake under 95% RH ([2]; 95% RH): 2.4%
- Hygroscopicity (European pharmacopoeia criteria) ([2]; 80% RH): slightly hygroscopic (increase in mass is less than 2 percent and equal to or greater than 0.2 percent)

Compound: O=C(O)CSc1nnc(Br)n1-c1ccc(C2CC2)c2ccccc12 [Form α, lesinurad sodium salt]
- Relative stability in water ([3]; in water under ambient conditions): more stable in comparison to Form A

Compound: O=C(O)CSc1nnc(Br)n1-c1ccc(C2CC2)c2ccccc12 [Form A, lesinurad sodium salt, reference compound]
- Form conversion after stirring in water ([3]; water, 500 rpm, 24 hours, ambient conditions, XRPD): converts to Form α

Compound: O=C(O)CSc1nnc(Br)n1-c1ccc(C2CC2)c2ccccc12 [lesinurad, 2-((5-bromo-4-(4-cyclopropylnaphthalen-1-yl)-4H-1,2,4-triazol-3-yl)thio)acetic acid]
- Serum levels of uric acid [4]: significantly reduced serum levels of uric acid

Compound: O=C(O)CSc1nnc(Br)n1-c1ccc(C2CC2)c2ccccc12 [Form β, lesinurad sodium salt]
- Stability under the stress conditions [5]: stable under the stress conditions
- Final form ([5]; XRPD): salt Form β
